In US12390483B2, “Compounds and methods for treating neurological and cardiovascular conditions” (Astrocyte Pharmaceuticals, Inc., priority 2016, dated 2025):

Experiments:
Human A3 = target: T1, Human A3 (Homo sapiens, UniProt P0DMS8); details: J. Med. Chem. 2002 45:4471-4484 (Gao et al.); cited from earlier work
T1 sequence (P0DMS8 1-318): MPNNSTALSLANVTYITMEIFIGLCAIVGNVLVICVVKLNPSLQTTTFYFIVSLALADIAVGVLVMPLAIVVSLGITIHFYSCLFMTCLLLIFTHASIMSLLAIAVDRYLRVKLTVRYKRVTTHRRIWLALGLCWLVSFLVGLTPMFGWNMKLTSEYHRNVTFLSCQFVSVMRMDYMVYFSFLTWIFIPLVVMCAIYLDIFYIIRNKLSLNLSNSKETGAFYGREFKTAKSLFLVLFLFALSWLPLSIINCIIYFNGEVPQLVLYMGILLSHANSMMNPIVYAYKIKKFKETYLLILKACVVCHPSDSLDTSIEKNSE

[1] = test system: photothrombosis-induced stroke infarctions; assay: Photothrombosis-induced stroke in mice, TTC-stained brain infarction size; assay type: in vivo
Description: Photothrombosis-induced Stroke: Photothrombosis was performed as described in Zheng et al 2010 (PloS One 5 (12): e14401). In brief, Rose Bengal is a fluorescent dye that when injected into the vasculature and excited, generates singlet oxygen that damages the endothelial wall and induces a local thrombosis (clot). Using this technique, mice were given a 0.1 mL tail-vein injection of sterilized Rose Bengal (RB, Sigma, U.S.A.) in artificial cerebral spinal fluid (aCSF). The RB concentration was 20 mg/mL. A cortical region was centered in the imaging field and illuminated with a green laser (543 nm, 5 mW) using a 0.8-NA 40× water-immersion objective (Nikon, Tokyo). The clot formation was monitored in real time until the targeted vessel or downstream capillaries were firmly occluded. Stable clots were subsequently identified by a non-fluorescent vessel segmentation ending with highly fluorescent regions. […] Treatments, MRS4322 (0.16 mg/kg; 0.5 μmol/kg) or MRS2365 (0.24 mg/kg; 0.5 μmol/kg) were introduced via intraperitoneal injections (i.p.). […] Animals and Photothrombosis-induced Stroke: Stroke was performed as described in Zheng et al 2010 (PloS One 5 (12): e14401). Female C57Bl/6 mice (4-6 months) were used in this study. From the methods of this manuscript: Mice were anesthetized at 3% isoflurane with 100% oxygen and subsequently maintained at 1% isoflurane through a nosecone. Depth of anesthesia was monitored and regulated according to vital signs, pinch withdrawal and eye blinks. Body temperature was maintained at 37° C. by a feedback-controlled heating pad (Gaymar T/Pump). Vital signs including oxygen saturation, respiratory rate, and heart rate were continuously monitored by using the MouseOx system (STARR Life Sciences). The hair on each mouse's head was trimmed and a small incision was made in the scalp to expose the skull. A custom-made stainless steel plate was glued to the skull with VetBond Tissue Adhesive (3M, St Paul, MN). A cranial thinned-skull imaging window was created over the right primary somatosensory cortex (˜1.5 mm posterior to Bregma and 2 mm lateral from midline) depending on the experiment. In brief, a large region of the skull was first thinned with the electric drill and then further thinned with a surgical blade. The final thickness of the thinned skull was approximately 50 μm. After the cranial imaging window was created, mice were transferred to microscope stage and used for photothrombosis or imaging experiments. For the repeat imaging experiments, the plate was carefully detached from the skull and the scalp was sutured (Ethicon 6-0 sild suture). After each experiment, the mice were either returned to cages until the next timepoint or sacrificed. All procedures were approved by the Institutional Animal Care and Use Committee (IACUC) at University of Texas Health Science Center at San Antonio. Thirty minutes following stroke or sham (uninjured), mice were treated with either vehicle (saline) or drugs (MRS4322, MRS2365, MRS5698 or Cl-IBMECA). Post photothrombotic infarction evaluation. The size of cerebral infarcts was evaluated using 2,3,5-Triphenyltetrazolium chloride (TTC) staining as described in Zheng et al 2010 (PloS One 5 (12): e14401). In brief, RB-induced lesions in brain slices were stained with TTC. TTC is a colorless dye that stains healthy brain tissue red when reduced by the mitochondrial enzyme succinyl dehydrogenase (Bederson J B et al., 1986). The absence of staining in necrotic tissue is then used to define the area of a brain infarction. Mice were sacrificed by cervical dislocation, their brains removed and then placed in ice cold HBSS for 3 minutes. […] The sections were fixed in 10% buffered formaldehyde solution overnight at 4° C. Slices were imaged on a flatbed scanner (HP scanjet 8300) for analysis of the lesion size at 1200 dpi. Photothrombosis-induced Stroke: Photothrombosis was performed as described in Zheng et al. 2010 (PloS One 5 (12): e14401). […]

[2] = mouse plasma and tissue; Tosh et al. Purinergic Signalling (2015) 11:371-387; cited from earlier work
GFAP expression = assay: Traumatic brain injury (TBI) in mice, Western blot analysis for GFAP; assay type: in vivo; details: summary statement
Description: Animals and traumatic brain injury (TBI): TBI was performed with a controlled closed skull injury model as described in […] al. 2012 (J. Neurotrauma 30, 55-66). Following the method described therein, a pneumatic impact device was used to generate a moderate TBI leaving the skull and dura matter intact. To achieve this, C57BL/6 mice were anesthetized with isoflurane (3% induction, 1% maintenance) in 100% oxygen. A body temperature of 37° C. was maintained using a temperature-controlled heated surgical table. A small midline incision was made on the scalp using aseptic surgical techniques. A 5 mm stainless steel disc was positioned on the skull and fixed using superglue on the right parietal bone between bregma and lamda over the somatosensory cortex. The mouse was then positioned on a stage directly under the pneumatic impact tip. […] Scalp incisions were closed using 4-0 nylon braided suture and antibiotic ointment applied to the incision. Mice were placed in a Thermo-Intensive Care Unit (Braintree Scientific model FV-1; 37° C.; 27% 02) and monitored until fully awake and moving freely. […] Western Blot Analysis for GFAP: At selected survival times, mice were anesthetized under isoflurane and sacrificed. The brain was removed and placed on ice for dissection into impacted and non-impacted brain hemispheres. […] The homogenate was transferred to a 2 mL tube and centrifuged at 1000 g for 10 minutes at 4° C. and the supernatant was collected and analyzed. Protein concentration was determined by the BCA assay using a 1:50 dilution. 100 μg of protein was removed as an aliquot for each sample and Laemmli buffer containing β-mercaptoethanol added and the sample placed in a heat block for 3 minutes at 95° C. Samples were loaded on a 12% gel and ran at 80 V for 20 minutes followed by 40 minutes at 130 V. Samples were transferred to nitrocellulose membrane at 100 V for 1 hour. The membrane was blocked with 5% milk in TBS-T for 30 minutes. GFAP (1:1000-Imgenex IMG-5083-A) was added and placed at 4° C. overnight. The membrane was washed with TBS-T three times for 10 minutes. Secondary antibody for GFAP (Donkey anti-rabbit HRP conjugated (ImmunoJackson Laboratories; 711-035-152; 1:20000) was applied at room temperature for 1 hour. The membranes were washed with TBS-T for 15 minutes (3 times) and developed using the Western Lightning Plus-ECL kit (PerkinElmer, Inc.) following manufacturer's directions.

For `Nc1nc(Cl)nc2c1ncn2[C@H]1[C@H](O)[C@H](O)[C@]2(CO)C[C@H]12` [MRS1873], the EC50 (Human A3) is listed as 803 nM and the “size of the brain infarction (TTC staining)” value ([1]; Example 7: mice, 100 ul of 100 uM i.p. within 30 minutes of clot formation, 24 hours after stroke, versus vehicle) is listed as “significantly reduced”.
In the case of `CNC(=O)[C@@]12C[C@@H]1[C@@H](n1cnc3c(NCc4cccc(Cl)c4)nc(C#Cc4ccc(F)c(F)c4)nc31)[C@H](O)[C@@H]2O` [MRS5698, reference compound], the “protein binding reported in the literature” value [2] is given as 99.88% and the “size of brain infarctions in mice pretreated with the A3 receptor antagonist MRS1523” value ([1]; MRS1523 2 mg/kg i.p. at 0 and 2 hours, treatment within 30 minutes of clot formation, 24 hours) is given as “not reduced”.
With `CCCOC(=O)c1c(-c2ccccc2)nc(CC)c(C(=O)SCC)c1CCC` [MRS1523, reference compound] the “effect of antagonist on neuroprotection of MRS4322 and MRS2365 treatments after stroke” value ([1]; MRS1523 2 mg/kg i.p. at 0 and 2 hours) was “inhibits neuroprotection”.
With `CNC(=O)[C@H]1O[C@@H](n2cnc3c(NCc4cccc(I)c4)nc(Cl)nc32)[C@H](O)[C@@H]1O` [Cl-IB-MECA, 2-Chloro-N^6-(3-iodobenzyl)-adenosine-5′-N-methyluronamide, reference compound] the “efficacy in the mouse TBI model” value (GFAP expression) was “weakly active”.
